We go through 32 compounds from patent US20100137313A1 (ASTRAZENECA AB, priority 2008, published 2010).

Chain of S. pneumoniae Topoisomerase IV ATPase (ParE) (Q59961 whole entry): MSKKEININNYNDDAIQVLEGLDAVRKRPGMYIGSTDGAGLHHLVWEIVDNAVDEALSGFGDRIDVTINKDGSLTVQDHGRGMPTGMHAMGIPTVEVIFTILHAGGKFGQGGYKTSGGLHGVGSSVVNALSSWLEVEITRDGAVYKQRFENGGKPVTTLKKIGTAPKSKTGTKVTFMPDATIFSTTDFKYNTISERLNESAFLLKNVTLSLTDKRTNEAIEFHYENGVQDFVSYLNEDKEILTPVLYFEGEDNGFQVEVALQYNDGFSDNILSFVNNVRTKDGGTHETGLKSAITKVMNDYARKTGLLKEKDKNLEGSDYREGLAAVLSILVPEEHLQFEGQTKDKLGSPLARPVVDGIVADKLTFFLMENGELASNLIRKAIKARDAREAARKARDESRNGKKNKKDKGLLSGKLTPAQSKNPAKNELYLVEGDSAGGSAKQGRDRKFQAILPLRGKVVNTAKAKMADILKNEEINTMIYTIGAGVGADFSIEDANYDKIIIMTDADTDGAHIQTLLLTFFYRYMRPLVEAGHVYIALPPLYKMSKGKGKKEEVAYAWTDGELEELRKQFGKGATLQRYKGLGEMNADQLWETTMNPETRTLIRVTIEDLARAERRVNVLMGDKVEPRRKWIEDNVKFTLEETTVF

This experiment addresses S. pneumoniae Topoisomerase IV ATPase (ParE) (Streptococcus pneumoniae serotype 4, UniProt Q59961). Put plainly: S. pneumoniae Topoisomerase IV ATPase inhibition. It counts as biochemical. The settings on record: values marked * are an average of two or more data points, read-out: % Inh (13 μM) of S. pneumoniae Topoisomerase IV ATPase. The method, boiled down: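 S. pneumoniae ParE (1.25 nM) ATPase with 160 μM ATP and 5 μg/ml sheared DNA in pH 8.0 Tris, Mg2+, DTT, Brij-35; phosphate detected by malachite green/molybdate at 650 nm. Normalised to 2% DMSO (0%) and 20 μM EDTA (100%); IC50 from 10 concentrations.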
In the case of `CCOC(=O)c1cn(CCOC)c2ccc(-c3cnc(Nc4ccc(F)c(Cl)c4)nc3NCCCOC)cc2c1=O` [Example 177, ethyl 6-(2-(3-chloro-4-fluorophenylamino)-4-(3-methoxypropylamino)-pyrimidin-5-yl)-1-(2-methoxyethyl)-4-oxo-1,4-dihydroquinoline-3-carboxylate], the inhibition at 13 µM is 68.9%.

For `COCCCNc1nc(Nc2ccc(F)c(Cl)c2)ncc1-c1ccc(C(=O)O)s1` [Example 178, 5-(2-(3-chloro-4-fluorophenylamino)-4-(3-methoxypropylamino)-pyrimidin-5-yl)thiophene-2-carboxylic acid], the inhibition at 13 µM came to 83%.

`COCCCNc1nc(Nc2ccc(F)c(Cl)c2)ncc1-c1ccc(C(C)=O)s1` [Example 179, 1-(5-(2-(3-chloro-4-fluorophenylamino)-4-(3-methoxypropylamino)-pyrimidin-5-yl)thiophen-2-yl)ethanone]: the inhibition at 13 µM is 93.9%.

With `COCCCNc1nc(Nc2ccc(F)c(Cl)c2)ncc1-c1ccc2sc(C(=O)OC)cc2c1` [Example 180, methyl 5-(2-(3-chloro-4-fluorophenylamino)-4-(3-methoxypropylamino)-pyrimidin-5-yl)benzo[b]thiopene-2-carboxylate], the inhibition at 13 µM is -56.9%.

For the compound `COCCCNc1nc(Nc2ccc(F)c(Cl)c2)ncc1-c1nc(C(=O)OC)cs1` [Example 212, Methyl 2-(2-(3-chloro-4-fluorophenylamino)-4-(3-methoxypropylamino)pyrimidin-5-yl)thiazole-4-carboxylate], the inhibition at 13 µM was 14.5%.

Take `Fc1ccc(Nc2ncc(-c3cncnc3)c(N3CCCCCC3)n2)cc1Cl` [Example 213, 4-(azepan-1-yl)-N-(3-chloro-4-fluorophenyl)-5-pyrimidin-5-ylpyrimidin-2-amine]: the inhibition at 13 µM was determined as 55.8%.

`CN(C)CCCNc1nc(Nc2ccc(F)c(Cl)c2)ncc1-c1cncc(C(=O)O)c1` [Example 214, 5-(2-(3-chloro-4-fluorophenylamino)-4-(3-(dimethylamino)propylamino)pyrimidin-5-yl)nicotinic acid]: the inhibition at 13 µM was determined as 101%.

Regarding `CN(C)CCCNc1nc(Nc2ccc(F)c(Cl)c2)ncc1-c1ccc(C(=O)O)cc1` [Example 216, 4-(2-[(3-chloro-4-fluorophenyl)amino]-4-{[3-(dimethylamino)propyl]amino}pyrimidin-5-yl)benzoic acid], the inhibition at 13 µM was 96.3%.

In the case of `CN(C)CCCNc1nc(Nc2ccc(F)c(Cl)c2)ncc1-c1ccc2sc(C(=O)O)cc2c1` [Example 217, 5-(2-(3-chloro-4-fluorophenylamino)-4-(3-(dimethylamino)propylamino)pyrimidin-5-yl)benzo[b] thiophene-2-carboxylic acid], the inhibition at 13 µM was 82.4%.

Turning to `CCCNc1nc(Nc2ccc(F)c(Cl)c2)ncc1-c1cncc(C(=O)O)c1` [Example 218, 5-[2-(3-Chloro-4-fluoro-phenylamino)-4-propylamino-pyrimidin-5-yl]-nicotinic acid], the inhibition at 13 µM came out at 80.9%.

Take `O=C(O)c1cncc(-c2cnc(Nc3ccc(F)c(Cl)c3)nc2NCCCN2CCCC2=O)c1` [Example 219, 5-{2-(3-Chloro-4-fluoro-phenylamino)-4-[3-(2-oxo-pyrrolidin-1-yl)-propylamino]-pyrimidin-5-yl}-nicotinic acid]: the inhibition at 13 µM was 79%.

In the case of `CN(C)CCNc1nc(Nc2ccc(F)c(Cl)c2)ncc1-c1cncc(C(=O)O)c1` [Example 220, 5-[2-(3-Chloro-4-fluoro-phenylamino)-4-(2-dimethylamino-ethylamino)-pyrimidin-5-yl]-nicotinic acid], the inhibition at 13 µM was 79%.

Turning to `CC(=O)NCCNc1nc(Nc2ccc(F)c(Cl)c2)ncc1-c1cncc(C(=O)O)c1` [Example 221, 5-[4-(2-Acetylamino-ethylamino)-2-(3-chloro-4-fluoro-phenylamino)-pyrimidin-5-yl]-nicotinic acid], the inhibition at 13 µM came out at 81%.

As to `O=C(O)c1cncc(-c2cnc(Nc3ccc(F)c(Cl)c3)nc2NCc2ccccn2)c1` [Example 222, 5-{2-(3-Chloro-4-fluoro-phenylamino)-4-[(pyridin-2-ylmethyl)-amino]-pyrimidin-5-yl]-nicotinic acid], the inhibition at 13 µM was found to be 76.2%.

On to `O=C(O)c1cncc(-c2cnc(Nc3ccc(F)c(Cl)c3)nc2NCc2cccnc2)c1` [Example 223, 5-{2-(3-Chloro-4-fluoro-phenylamino)-4-[(pyridin-3-ylmethyl)-amino]-pyrimidin-5-yl}-nicotinic acid], for which the inhibition at 13 µM came out at 77.4%.

For the compound `O=C(O)c1cncc(-c2cnc(Nc3ccc(F)c(Cl)c3)nc2NCc2ccncc2)c1` [Example 224, 5-{2-(3-Chloro-4-fluoro-phenylamino)-4-[(pyridin-4-ylmethyl)-amino]-pyrimidin-5-yl}-nicotinic acid], the inhibition at 13 µM was 78.5%.

Turning to `CC(C)(C)OC(=O)NCCNc1nc(Nc2ccc(F)c(Cl)c2)ncc1-c1cncc(C(=O)O)c1` [Example 225, 5-[4-(2-tert-Butoxycarbonylamino-ethylamino)-2-(3-chloro-4-fluoro-phenylamino)-pyrimidin-5-yl]-nicotinic acid], the inhibition at 13 µM came to 81.1%.

On to `NC(=O)CCNc1nc(Nc2ccc(F)c(Cl)c2)ncc1-c1cncc(C(=O)O)c1` [Example 226, 5-[4-(2-Carbamoyl-ethylamino)-2-(3-chloro-4-fluoro-phenylamino)-pyrimidin-5-yl]-nicotinic acid], for which the inhibition at 13 µM is 79.5%.

`O=C(O)c1cncc(-c2cnc(Nc3ccc(F)c(Cl)c3)nc2NCCN2CCOCC2)c1` [Example 227, 5-[2-(3-Chloro-4-fluoro-phenylamino)-4-(2-morpholin-4-yl-ethylamino)-pyrimidin-5-yl]-nicotinic acid]: the inhibition at 13 µM turned out to be 79%.

As to `O=C(O)c1cncc(-c2cnc(Nc3ccc(F)c(Cl)c3)nc2NCCc2ccccn2)c1` [Example 228, 5-[2-(3-Chloro-4-fluoro-phenylamino)-4-(2-pyridin-2-yl-ethylamino)-pyrimidin-5-yl]-nicotinic acid], the inhibition at 13 µM was 78.5%.

In the case of `O=C(O)c1cncc(-c2cnc(Nc3ccc(F)c(Cl)c3)nc2NCCc2cccnc2)c1` [Example 229, 5-[2-(3-Chloro-4-fluoro-phenylamino)-4-(2-pyridin-3-yl-ethylamino)-pyrimidin-5-yl]-nicotinic acid], the inhibition at 13 µM amounted to 85%.

Take `O=C(O)c1cncc(-c2cnc(Nc3ccc(F)c(Cl)c3)nc2NCCc2ccncc2)c1` [Example 230, 5-[2-(3-Chloro-4-fluoro-phenylamino)-4-(2-pyridin-4-yl-ethylamino)-pyrimidin-5-yl]-nicotinic acid]: the inhibition at 13 µM was determined as 79.6%.

For `O=C(O)c1cncc(-c2cnc(Nc3ccc(F)c(Cl)c3)nc2NCCN2CCS(=O)(=O)CC2)c1` [Example 231, 5-{2-(3-Chloro-4-fluoro-phenylamino)-4-[2-(1,1-dioxo-1λ^6-thiomorpholin-4-yl)-ethylamino]-pyrimidin-5-yl}-nicotinic acid], the inhibition at 13 µM turned out to be 81.5%.

In the case of `O=C(O)c1cncc(-c2cnc(Nc3ccc(F)c(Cl)c3)nc2NCCCN2CCS(=O)(=O)CC2)c1` [Example 232, 5-{2-(3-Chloro-4-fluoro-phenylamino)-4-[3-(1,1-dioxo-1λ^6-thiomorpholin-4-yl)-propylamino]-pyrimidin-5-yl}-nicotinic acid], the inhibition at 13 µM stood at 81%.

As for `O=C(O)c1cncc(-c2cnc(Nc3ccc(F)c(Cl)c3)nc2NCCCN2CCOCC2)c1` [Example 233, 5-[2-[(3-chloro-4-fluorophenyl)amino]-4-(3-morpholin-4-ylpropylamino)pyrimidin-5-yl]pyridine-3-carboxylic acid], the inhibition at 13 µM was found to be 75.4%.

Regarding `COCCNc1nc(Nc2ccc(F)c(Cl)c2)ncc1-c1cncc(C(=O)O)c1` [Example 234, 5-[2-[(3-chloro-4-fluorophenyl)amino]-4-(2-methoxyethylamino)-pyrimidin-5-yl]pyridine-3-carboxylic acid], the inhibition at 13 µM came out at 73.2%.

With `O=C(O)c1cncc(-c2cnc(Nc3ccc(F)c(Cl)c3)nc2NCC2CCCO2)c1` (centres unmarked) [Example 235, 5-[2-[(3-chloro-4-fluorophenyl)amino]-4-(oxolan-2-ylmethylamino)pyrimidin-5-yl]pyridine-3-carboxylic acid], the inhibition at 13 µM was 81.2%.

`CC(C)OCCNc1nc(Nc2ccc(F)c(Cl)c2)ncc1-c1cncc(C(=O)O)c1` [Example 236, 5-[2-[(3-chloro-4-fluorophenyl)amino]-4-(2-propan-2-yloxyethyolamino)pyrimidin-5-yl]pyridine-3-carboxylic acid]: the inhibition at 13 µM stood at 73.6%.

With `O=C(O)c1cncc(-c2cnc(Nc3ccc(F)c(Cl)c3)nc2NCc2ccco2)c1` [Example 237, 5-[2-[(3-chloro-4-fluorophenyl)amino]-4-(furan-2-ylmethylamino)pyrimidin-5-yl]pyridine-3-carboxylic acid], the inhibition at 13 µM amounted to 85.4%.

`O=C(O)CNc1nc(Nc2ccc(F)c(Cl)c2)ncc1-c1cncc(C(=O)O)c1` [Example 238, 5-[4-(carboxymethylamino)-2-[(3-chloro-4-fluorophenyl)amino]-pyrimidin-5-yl]pyridine-3-carboxylic acid]: the inhibition at 13 µM is 72.6%.

For the compound `O=C(O)c1cncc(-c2cnc(Nc3ccc(F)c(Cl)c3)nc2NCCOc2ccccc2)c1` [Example 239, 5-[2-[(3-chloro-4-fluorophenyl)amino]-4-(2-phenoxyethylamino)-pyrimidin-5-yl]pyridine-3-carboxylic acid], the inhibition at 13 µM was 85.1%.

`C[C@@H](Nc1nc(Nc2ccc(F)c(Cl)c2)ncc1-c1cncc(C(=O)O)c1)C(=O)O` [Example 240, 5-[2-[(3-chloro-4-fluorophenyl)amino]-4-[[(2R)-1-hydroxy-1-oxopropan-2-yl]amino]pyrimidin-5-yl]pyridine-3-carboxylic acid]: the inhibition at 13 µM was 45.8%.
